Results taken from US7071227B2, “Antiviral compositions and methods of use” (The Johns Hopkins University, priority 2000, dated 2006).
Converted amounts (≈) assume the structure as drawn. “And” between values parts separate entries of the source, which are not always exact repeats. Equal values may be shown once. Read-outs that look alike come from different tables or passages of the source.

Key:
HIV-1 integrase = HIV-1 integrase (Human immunodeficiency virus type 1 group M subtype B, UniProt P12497); test: HIV-1 integrase 3'-end processing assay; format: biochemical
Protocol: The HIV-1 integrase assay utilized in testing described below used a DNA substrate consisting of a DNA sequence derived from the U5 end of HIV-1 LTR. It was prepared by annealing oligonucleotide U5V1 (5′-[…]) with its complementary strand U5V2 (3′-[…]). The U5V1 strand was labeled at the 5′-end with [γ-^32P] ATP using T4 polynucleotide kinase as described previously (Kamata et al., 1994). The standard reaction mixture included reaction buffer (40 mM HEPES, pH 7.5, 20 mM MnCL2, 60 mM NaCl, 20 mM DTT and 0.1% Nonidet-P40) and HIV-1 integrase (NIH AIDS Research and Reference Reagent Program). To assay for 3′-end processing, the labeled substrate was incubated with the reaction mixture for 60 minutes at 37° C. An equal volume of stop solution (95% formamide, 30 mM EDTA, 0.1% xylene cyanol, 0.1% bromophenol blue) was added to each reaction and the samples were heated to 95°′ C. for 5 minutes to denature the DNA. The samples were then fractionated by electrophorsis on a 15% denaturing polyacrylamide gel. The 3′-end processing activity was monitored by the appearance of a radioactive oligonucleotides product (33 nt), shortened by two nucleotides from the original substrate (35 nt). The products were visualized by autoradiography and quantitation was carried out by phosphorimaging.

[1] = tested on: HIV-1IIIBA17 and HIV-1L10R/M461/L63P/V82T/184V; test: HIV replication in infected H9 cells, HIV/p24 monoclonal antibody assay; format: cell-based; conditions: Human immunodeficiency virus 1, H9, read-out: IC50 against HIV replication
Protocol: The following cells and virus strains were obtained from the AIDS Research and Reference Regent Program, Division of AIDS, National Institute of Allergy and Infectious Diseases: H9 cells, virus strains of HIV-1IIIBA17, a variant resistant to RT nonnucleotide inhibitors and HIV-1L10R/M461/L63P/V82T/184V, a protease inhibitor resistant virus, as well as viral strains HTLV-IIImn, HIV-1RTMF and HTLV-IIIB. Virus-infected H9 cells were cultured in the presence of different concentrations of M522 and M532 and viral replication was assayed using the HIV/p24 monoclonal antibody assay.
The inhibitory effect of M522 and M532 against HIV replication was further examined using HIV-1IIIBA17, a variant resistant to RT nonnucleotide inhibitors and HIV-1L10R/M461/L63P/V82T/184V, a protease inhibitor resistant virus, as testing viruses in the presence of a variety of drug concentrations in infected H9 cells.
FIG. 7A graphically illustrates the effect of M522 and M532 on HIV-1 replication. FIG. 7A illustrates the dose-dependent inhibition of HIV-1 replication in H9 cells infected with HIV-1IIIBA17 and HIV-1L10R/M461/L63P/V82T/184V viruses in the presence of different drug concentrations of M522 and M532.

H9 cells = test: MTT cytotoxicity assay; format: cell-based, human; conditions: 4 days
Protocol: The cytotoxicity of M522 and M532 drugs against H9 cells was analyzed using MTT [3-(4,5-dimethylthiazol-2-yl)-2,5-diphenyltetrazolium bromide] assay (Sigma Chemical Co.) (Uckun et al., 1998). Briefly, exponentially growing H9 cells were seeded onto 96-well plates at a density of 3×10^4 cells/well and incubated for 24 h at 37° C. prior to drug exposure. On the day of treatment, a series Of M522 and M532 concentrations (1.25, 2.5, 5, 10, 20, 40, 80, and 160 μg/ ml) were used to test their cytotoxicity in H9 cells. Quadruplicate wells were used for each treatment. The cells were incubated with M522 and M532 for 4 days at 37° C. in a humidified 5% CO2 atmosphere. To each well, 50 μl of MTT (1 mg/ml final concentration) was added and the plates were incubated at 37° C. for 4 h to allow MTT to form formazan crystals by reacting with metabolically active cells. The formazan crystals were solubilized with DMSO. The absorbance of each well was measured in a microtiter reader at optical density 540 nm. The reaction is specific, no significant amounts of formazan can be detected with dead cells.

HIV-1IIIBA17 variant = test: HIV-1 replication in H9 cells, p24 antigen assay; format: cell-based; conditions: for inhibition at 1.25 µg/mL / inhibition at 2.5 µg/mL / inhibition at 5 µg/mL / inhibition at 10 µg/mL / inhibition at 20 µg/mL / inhibition at 40 µg/mL / inhibition at 80 µg/mL: Human immunodeficiency virus 1, H9; for IC50: Human immunodeficiency virus 1, H9, 192 h, read-out: IC50, HIV-1 replication
Protocol: (§1) Inhibitory activity of M522 and M532 against the replication of four different HIV-1 strains was tested in this example. Two of the strains were drug-resistant virus isolates (HIV-1RTMF resistant against AZT and HIV-1IIIBA17 variant resistant against inhibition by RT nonnucleotide inhibitors) and the other two were primary isolates (HTLV-IIIMN and HTLV-IIIB).
(§2) On the day before infection, H9 cells were subcultured at 1–2×10^5 cells/ml and on the day of the infection, cells were pelleted by centrifugation at room temperature for 10 minutes. The pellet was then resuspended with 1 ml of each strain according to the virus titer. The mixtures were incubated at 37 ° C. in CO2 incubator for 2 hours. The cells were then washed two times with PBS and then two times with the culture medium (RPMI 1640). The cells were resuspended with fresh medium and plated in 96 well plates. Every 3–4 days after infection, cells were sub-cultured and supernatant was saved to assay for virus production.
(§3) The activity of M522 against the four strains were tested at various drug concentrations of 80, 40, 20, 10, 5, 2.5, 1.25, and 0 μg/ml. After 8 days, the infection of the cells was detected by using HIV-1 p24 antigen assay, which is an enzyme immunoassay (EIA, or enzyme-linked immunosorbent assay) developed for detection and quantitation of the HIV-1 p24 core protein.

HIV-1RTMF = test: HIV-1 replication in H9 cells, p24 antigen assay; format: cell-based; conditions: for inhibition at 1.25 µg/mL / inhibition at 2.5 µg/mL / inhibition at 5 µg/mL / inhibition at 10 µg/mL / inhibition at 20 µg/mL / inhibition at 40 µg/mL / inhibition at 80 µg/mL: Human immunodeficiency virus 1, H9; for IC50: Human immunodeficiency virus 1, H9, 192 h, read-out: IC50, HIV-1 replication
Protocol: as §1, §2, §3

HTLV-IIIB = test: HIV-1 replication in H9 cells, p24 antigen assay; format: cell-based; conditions: for IC50: Human immunodeficiency virus 1, 192 h, H9 cells, 8 days; for inhibition at 1.25 µg/mL: Human immunodeficiency virus 1, H9, 1.25 μg/ml; for inhibition at 2.5 µg/mL: Human immunodeficiency virus 1, H9, 2.5 μg/ml; for inhibition at 5 µg/mL: Human immunodeficiency virus 1, H9, 5.0 μg/ml; for inhibition at 10 µg/mL: Human immunodeficiency virus 1, H9, 10.0 μg/ml; for inhibition at 20 µg/mL: Human immunodeficiency virus 1, H9, 20.0 μg/ml; for inhibition at 40 µg/mL: Human immunodeficiency virus 1, H9, 40.0 μg/ml; for inhibition at 80 µg/mL: Human immunodeficiency virus 1, H9, 80.0 μg/ml
Protocol: as §1, §2, §3

HTLV-IIIMN = test: HIV-1 replication in H9 cells, p24 antigen assay; format: cell-based; conditions: for IC50: Human immunodeficiency virus 1, 192 h, H9 cells, 8 days; for inhibition at 1.25 µg/mL: Human immunodeficiency virus 1, H9, 1.25 μg/ml; for inhibition at 2.5 µg/mL: Human immunodeficiency virus 1, H9, 2.5 μg/ml; for inhibition at 5 µg/mL: Human immunodeficiency virus 1, H9, 5.0 μg/ml; for inhibition at 10 µg/mL: Human immunodeficiency virus 1, H9, 10.0 μg/ml; for inhibition at 20 µg/mL: Human immunodeficiency virus 1, H9, 20.0 μg/ml; for inhibition at 40 µg/mL: Human immunodeficiency virus 1, H9, 40.0 μg/ml; for inhibition at 80 µg/mL: Human immunodeficiency virus 1, H9, 80.0 μg/ml
Protocol: as §1, §2, §3

| SMILES | IC50 [1] | CC100; cells remained viable at highest concentration tested (H9 cells) | inhibition at 1.25 µg/mL (HIV-1IIIBA17 variant) | inhibition at 2.5 µg/mL (HIV-1IIIBA17 variant) | inhibition at 5 µg/mL (HIV-1IIIBA17 variant) | inhibition at 10 µg/mL (HIV-1IIIBA17 variant) | inhibition at 20 µg/mL (HIV-1IIIBA17 variant) | inhibition at 40 µg/mL (HIV-1IIIBA17 variant) | inhibition at 80 µg/mL (HIV-1IIIBA17 variant) | IC50 (HIV-1IIIBA17 variant) | inhibition at 1.25 µg/mL (HIV-1RTMF) | inhibition at 2.5 µg/mL (HIV-1RTMF) | inhibition at 5 µg/mL (HIV-1RTMF) | inhibition at 10 µg/mL (HIV-1RTMF) | inhibition at 20 µg/mL (HIV-1RTMF) | inhibition at 40 µg/mL (HIV-1RTMF) | inhibition at 80 µg/mL (HIV-1RTMF) | IC50 (HIV-1RTMF) | IC50 (HTLV-IIIB) | inhibition at 1.25 µg/mL (HTLV-IIIB) | other results |
| --- | --- | --- | --- | --- | --- | --- | --- | --- | --- | --- | --- | --- | --- | --- | --- | --- | --- | --- | --- | --- | --- |
| O=C(/C=C/c1ccc(O)c2c1[C@H](C(=O)O[C@H](Cc1ccc(O)c(O)c1)C(=O)O)[C@@H](c1ccc(O)c(O)c1)O2)O[C@H](Cc1ccc(O)c(O)c1)C(=O)O [M532, 4-{2-[1-carboxy-2-(3,4-dihydroxy-phenyl)-ethoxycarbonyl]-vinyl}-2-(3,4-dihydroxy-phenyl)-7-hydroxy-2,3-dihydro-benzofuran-3-carboxylic acid 1-carboxy-2-(3,4-dihydroxy-phenyl)-ethyl ester] | 1 µg/mL and 1.39 µM | > 223 µM | 2% | 21.8% | 50% | 53.6% | 97.5% | 97.7% | 98.4% | 5 µg/mL (≈ 6.96 µM) | 20.8% | 38.7% | 44.2% | 73.6% | 90.4% | 95% | 98.3% | 5.6 µg/mL (≈ 7.79 µM) | 11 µg/mL (≈ 15.3 µM) | 4.7% | IC50 (HIV-1 integrase; IC50, inhibition of HIV-1 integrase 3' processing activity): 487 nM and 450 nM; inhibition at 2.5 µg/mL (HTLV-IIIB): 16.1%; inhibition at 5 µg/mL (HTLV-IIIB): 20.1%; inhibition at 10 µg/mL (HTLV-IIIB): 34.5%; inhibition at 20 µg/mL (HTLV-IIIB): 90.8%; inhibition at 40 µg/mL (HTLV-IIIB): 96.2%; inhibition at 80 µg/mL (HTLV-IIIB): 96.8%; IC50 (HTLV-IIIMN): 5.5 µg/mL (≈ 7.65 µM); inhibition at 1.25 µg/mL (HTLV-IIIMN): 8.3%; inhibition at 2.5 µg/mL (HTLV-IIIMN): 45.7%; inhibition at 5 µg/mL (HTLV-IIIMN): 47%; inhibition at 10 µg/mL (HTLV-IIIMN): 57.2%; inhibition at 20 µg/mL (HTLV-IIIMN): 87%; inhibition at 40 µg/mL (HTLV-IIIMN): 90%; inhibition at 80 µg/mL (HTLV-IIIMN): 94.1% |
| O=C(/C=C/c1ccc(O)c2c1[C@H](C(=O)O)[C@@H](c1ccc(O)c(O)c1)O2)O[C@H](Cc1ccc(O)c(O)c1)C(=O)O [M522, 4-{2-[1-carboxy-2-(3,4-dihydroxy-phenyl)-ethoxycarbonyl]-vinyl}-2-(3,4-dihydroxy-phenyl)-7-hydroxy-2,3-dihydro-benzofuran-3-carboxylic acid] | 1.5 µg/mL and 2.7 µM | > 297 µM | 51.2% | 53.6% | 76.8% | 85% | 90.2% | 100% | 100% | 1.5 µg/mL (≈ 2.79 µM) | 26.2% | 47.7% | 78.6% | 83.4% | 95.5% | 98.2% | 100% | 2.7 µg/mL (≈ 5.01 µM) | 11 µg/mL (≈ 20.4 µM) | 31.4% | IC50 (HIV-1 integrase; read-out: IC50, inhibition of HIV-1 integrase 3' processing activity (converted)): 836 nM and 830 nM; inhibition at 2.5 µg/mL (HTLV-IIIB): 42.1%; inhibition at 5 µg/mL (HTLV-IIIB): 45.9%; inhibition at 10 µg/mL (HTLV-IIIB): 47.3%; inhibition at 20 µg/mL (HTLV-IIIB): 62%; inhibition at 40 µg/mL (HTLV-IIIB): 82.4%; inhibition at 80 µg/mL (HTLV-IIIB): 94.5%; IC50 (HTLV-IIIMN): 9 µg/mL (≈ 16.7 µM); inhibition at 1.25 µg/mL (HTLV-IIIMN): 7.7%; inhibition at 2.5 µg/mL (HTLV-IIIMN): 21.8%; inhibition at 5 µg/mL (HTLV-IIIMN): 30%; inhibition at 10 µg/mL (HTLV-IIIMN): 51.9%; inhibition at 20 µg/mL (HTLV-IIIMN): 72.1%; inhibition at 40 µg/mL (HTLV-IIIMN): 77.3%; inhibition at 80 µg/mL (HTLV-IIIMN): 88.4% |
